Experimental data published in patent US20260345623A1, “NOVEL […] HETEROCYCLIC CARBALDEHYDE COMPOUND AND PHARMACEUTICAL COMPOSITION, CONTAINING SAME, FOR IRE1alpha INHIBITION” (HANMI PHARM. CO., LTD., priority 2022, published 2026).
pIC50: −log10 of the molar value. Like-named read-outs stand apart in the source and are kept apart here.

Biological target: T1, spliced XBP1 mRNA (target of IRE endonuclease) in MCF-7 cancer cells (Homo sapiens, UniProt O75460)
T1 construct: tunicamycin ER stress; RT-PCR of spliced XBP1 mRNA (RNase domain activity)
T1 sequence (O75460 19-977): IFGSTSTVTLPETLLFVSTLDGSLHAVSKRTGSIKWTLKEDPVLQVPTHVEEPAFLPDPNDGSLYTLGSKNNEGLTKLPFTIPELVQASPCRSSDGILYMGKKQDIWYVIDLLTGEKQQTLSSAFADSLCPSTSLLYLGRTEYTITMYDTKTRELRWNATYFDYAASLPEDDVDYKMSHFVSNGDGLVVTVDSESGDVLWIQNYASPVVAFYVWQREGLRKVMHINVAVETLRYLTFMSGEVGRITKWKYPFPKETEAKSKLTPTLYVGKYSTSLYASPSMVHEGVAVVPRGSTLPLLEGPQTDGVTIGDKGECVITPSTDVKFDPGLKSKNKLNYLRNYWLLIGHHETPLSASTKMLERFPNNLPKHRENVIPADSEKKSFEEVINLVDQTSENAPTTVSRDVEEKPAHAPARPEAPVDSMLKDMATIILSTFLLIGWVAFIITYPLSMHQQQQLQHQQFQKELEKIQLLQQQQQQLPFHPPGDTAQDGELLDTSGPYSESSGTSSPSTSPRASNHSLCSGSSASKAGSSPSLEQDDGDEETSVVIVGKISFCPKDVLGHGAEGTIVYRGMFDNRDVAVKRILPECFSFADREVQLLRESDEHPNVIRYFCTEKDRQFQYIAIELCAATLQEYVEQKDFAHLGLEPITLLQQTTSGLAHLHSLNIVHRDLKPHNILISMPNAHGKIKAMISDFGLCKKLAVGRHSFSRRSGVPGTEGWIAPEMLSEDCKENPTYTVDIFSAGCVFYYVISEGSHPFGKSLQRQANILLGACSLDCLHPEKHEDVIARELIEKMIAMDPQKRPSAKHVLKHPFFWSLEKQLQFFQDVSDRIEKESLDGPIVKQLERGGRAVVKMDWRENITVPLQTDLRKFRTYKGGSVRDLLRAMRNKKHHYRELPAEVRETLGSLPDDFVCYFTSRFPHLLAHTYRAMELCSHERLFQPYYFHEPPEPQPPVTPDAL
Experiment: Spliced XBP1 mRNA Measurement Test (RT-PCR, tunicamycin-induced ER stress, MCF-7 cells)
Assay type: cell-based
Description: A reverse transcription polymerase chain reaction is a test method in which RNA is extracted from cells, reverse transcriptase is used to make cDNA, and relative mRNA expression level is measured through a polymerase chain reaction.
Briefly, MCF-7 cells were seeded in a 12-well plate and cultured in an incubator including 5% CO2 for one day. On the next day, compounds, which were 10-fold serially diluted from 10,000 nM, were pre-treated for 1 hour, and then, treated with 2 μg/mL tunicamycin for 6 or 24 hours to induce endoplasmic reticulum stress, followed by cell lysis to obtain RNA. RNA was subjected to the procedure of RNeasy Kits (Qiagen, 74106), and 5 μg of RNA sample was dissolved in a sample including reverse transcriptase and dNTP, and reverse transcription reaction was performed with a thermal cycler. The amount of mRNA of each of spliced XBP1 and total XBP1 was measured by a polymerase chain reaction through real time PCR by mixing each cDNA sample with a PCR reaction mixture including a primer pair capable of binding specifically to each target and SYBR green dye. The expression level of spliced XBP1 was corrected by the total expression level of XBP1, and the relative expression levels of spliced XBP1 between samples were compared and analyzed.

[1] = 1 hour pre-treatment with compound, 2 μg/mL tunicamycin 6 or 24 hours, spliced XBP1 corrected by total XBP1, read-out: XBP1 mRNA (IC50)
[2] = read-out: XBP1 mRNA (IC50), 1 hour pre-treatment with compound, 2 μg/mL tunicamycin 6 or 24 hours, spliced XBP1 corrected by total XBP1

SMILES	pIC50 [1]	pIC50 [2]
Cc1c(CC(N)=O)c(=O)oc2c(C=O)c(O)c3c(c12)CCCO3 [Example 22, 2-(5-formyl-6-hydroxy-1-methyl-3-oxo-3,8,9,10-tetrahydropyrano[3,2-f]chromen-2-yl)acetamide]	< 6.70	–
Cc1c(CC(=O)N2CCCCC2)c(=O)oc2c(C=O)c(O)c3c(c12)CCCO3 [Example 21, 6-hydroxy-1-methyl-3-oxo-2-(2-oxo-2-(piperidin-1-yl)ethyl)-3,8,9,10-tetrahydropyrano[3,2-f]chromene-5-carbaldehyde]	< 6.70	–
Cc1c(CC(=O)N2CCC(F)C2)c(=O)oc2c(C=O)c(O)c3c(c12)CCCO3 (stereo not shown) [Example 16, 2-(2-(3-fluoropyrrolidin-1-yl)-2-oxoethyl)-6-hydroxy-1-methyl-3-oxo-3,8,9,10-tetrahydropyrano[3,2-f]chromene-5-carbaldehyde]	< 6.70	–
Cc1c(CC(=O)N2CCN(C)CC2)c(=O)oc2c(C=O)c(O)c3c(c12)CCCO3 [Example 6, 6-hydroxy-1-methyl-2-(2-(4-methylpiperazin-1-yl)-2-oxoethyl)-3-oxo-3,8,9,10-tetrahydropyrano[3,2-f]chromene-5-carbaldehyde]	–	> 7.00
Cc1c(CC(=O)N2CC(F)C2)c(=O)oc2c(C=O)c(O)c3c(c12)CCCO3 [Example 19, 2-(2-(3-fluoroazetidin-1-yl)-2-oxoethyl)-6-hydroxy-1-methyl-3-oxo-3,8,9,10-tetrahydropyrano[3,2-f]chromene-5-carbaldehyde]	6.70 to 7.00	–
CCc1c(CC(=O)N2CCCC2)c(=O)oc2c(C=O)c(O)c3c(c12)CCCO3 [Example 18, 1-ethyl-6-hydroxy-3-oxo-2-(2-oxo-2-(pyrrolidin-1-yl)ethyl)-3,8,9,10-tetrahydropyrano[3,2-f]chromene-5-carbaldehyde]	< 6.70	–
Cc1c(CC(=O)N2CCC2)c(=O)oc2c(C=O)c(O)c3c(c12)CCCO3 [Example 13, 2-(2-(azetidin-1-yl)-2-oxoethyl)-6-hydroxy-1-methyl-3-oxo-3,8,9,10-tetrahydropyrano[3,2-f]chromene-5-carbaldehyde]	6.70 to 7.00	–
Cc1c(CC(=O)N2CCSCC2)c(=O)oc2c(C=O)c(O)c3c(c12)CCCO3 [Example 28, 6-hydroxy-1-methyl-3-oxo-2-(2-oxo-2-thiomorpholinoethyl)-3,8,9,10-tetrahydropyrano[3,2-f]chromene-5-carbaldehyde]	6.70 to 7.00	–
COC1CCN(C(=O)Cc2c(C)c3c4c(c(O)c(C=O)c3oc2=O)OCCC4)C1 (stereo not shown) [Example 14, 6-hydroxy-2-(2-(3-methoxypyrrolidin-1-yl)-2-oxoethyl)-1-methyl-3-oxo-3,8,9,10-tetrahydropyrano[3,2-f]chromene-5-carbaldehyde]	6.70 to 7.00	–
Cc1c(CC(=O)N2CCC(C)(C)C2)c(=O)oc2c(C=O)c(O)c3c(c12)CCCO3 [Example 12, 2-(2-(3,3-dimethylpyrrolidin-1-yl)-2-oxoethyl)-6-hydroxy-1-methyl-3-oxo-3,8,9,10-tetrahydropyrano[3,2-f]chromene-5-carbaldehyde]	6.70 to 7.00	–
Cc1c(CC(=O)N2CCN(C(C)C)CC2)c(=O)oc2c(C=O)c(O)c3c(c12)CCCO3 [Example 7, 6-hydroxy-2-(2-(4-isopropylpiperazin-1-yl)-2-oxoethyl)-1-methyl-3-oxo-3,8,9,10-tetrahydropyrano[3,2-f]chromene-5-carbaldehyde]	–	6.70 to 7.00
Cc1c(CC(=O)N2CCOCC2)c(=O)oc2c(C=O)c(O)c3c(c12)OCO3 [Example 2, 4-hydroxy-9-methyl-8-(2-morpholino-2-oxoethyl)-7-oxo-7H-[1,3]dioxolo[4,5-f]chromene-5-carbaldehyde]	6.70 to 7.00	–
Cc1c(CC(=O)N2CCC3(CC3)C2)c(=O)oc2c(C=O)c(O)c3c(c12)CCCO3 [Example 20, 6-hydroxy-1-methyl-3-oxo-2-(2-oxo-2-(5-azaspiro[2.4]heptan-5-yl)ethyl)-3,8,9,10-tetrahydropyrano[3,2-f]chromene-5-carbaldehyde]	6.70 to 7.00	–
Cc1c(CC(=O)N2CCC(C)CC2)c(=O)oc2c(C=O)c(O)c3c(c12)CCCO3 [Example 4, 6-hydroxy-1-methyl-2-(2-(4-methylpiperidin-1-yl)-2-oxoethyl)-3-oxo-3,8,9,10-tetrahydropyrano[3,2-f]chromene-5-carbaldehyde]	< 6.70	–
COC1CN(C(=O)Cc2c(C)c3c4c(c(O)c(C=O)c3oc2=O)OCCC4)C1 [Example 15, 6-hydroxy-2-(2-(3-methoxyazetidin-1-yl)-2-oxoethyl)-1-methyl-3-oxo-3,8,9,10-tetrahydropyrano[3,2-f]chromene-5-carbaldehyde]	6.70 to 7.00	–
CC(C)c1c(CC(=O)N2CCCC2)c(=O)oc2c(C=O)c(O)c3c(c12)CCCO3 [Example 23, 6-hydroxy-1-isopropyl-3-oxo-2-(2-oxo-2-(pyrrolidin-1-yl)ethyl)-3,8,9,10-tetrahydropyrano[3,2-f]chromene-5-carbaldehyde]	6.70 to 7.00	–
Cc1c(CC(=O)NCCN2CCOCC2)c(=O)oc2c(C=O)c(O)c3c(c12)CCCO3 [Example 29, 2-(5-formyl-6-hydroxy-1-methyl-3-oxo-3,8,9,10-tetrahydropyrano[3,2-f]chromen-2-yl)-N-(2-morpholinoethyl)acetamide]	< 6.70	–
Cc1c(CC(=O)N2CC3CC2CO3)c(=O)oc2c(C=O)c(O)c3c(c12)CCCO3 (stereo not shown) [Example 27, 2-(2-(2-oxa-5-azabicyclo[2.2.1]heptan-5-yl)-2-oxoethyl)-6-hydroxy-1-methyl-3-oxo-3,8,9,10-tetrahydropyrano[3,2-f]chromene-5-carbaldehyde]	> 7.00	–
Cc1c(CC(=O)N2CCNCC2)c(=O)oc2c(C=O)c(O)c3c(c12)CCCO3 [Example 31, 6-hydroxy-1-methyl-3-oxo-2-(2-oxo-2-(piperazin-1-yl)ethyl)-3,8,9,10-tetrahydropyrano[3,2-f]chromene-5-carbaldehyde]	< 6.70	–
CC(=O)N1CCN(C(=O)Cc2c(C)c3c4c(c(O)c(C=O)c3oc2=O)OCCC4)CC1 [Example 26, 2-(2-(4-acetylpiperazin-1-yl)-2-oxoethyl)-6-hydroxy-1-methyl-3-oxo-3,8,9,10-tetrahydropyrano[3,2-f]chromene-5-carbaldehyde]	< 6.70	–

More lines, main results first:

pIC50 [1]	SMILES	pIC50 [2]
> 7.00	Cc1c(CC(=O)N2CCOCC2)c(=O)oc2c(C=O)c(O)c3c(c12)CCO3 [Example 1, 4-hydroxy-9-methyl-8-(2-morpholino-2-oxoethyl)-7-oxo-1,7-dihydro-2H-furo[3,2-f]chromene-5-carbaldehyde]	–
> 7.00	CCN(CC)C(=O)Cc1c(C)c2c3c(c(O)c(C=O)c2oc1=O)OCC3 [Example 9, N,N-diethyl-2-(5-formyl-4-hydroxy-9-methyl-7-oxo-1,7-dihydro-2H-furo[3,2-f]chromen-8-yl)acetamide]	–
> 7.00	Cc1c(CC(=O)N2CCC(F)(F)C2)c(=O)oc2c(C=O)c(O)c3c(c12)CCCO3 [Example 10, 2-(2-(3,3-difluoropyrrolidin-1-yl)-2-oxoethyl)-6-hydroxy-1-methyl-3-oxo-3,8,9,10-tetrahydropyrano[3,2-f]chromene-5-carbaldehyde]	–
> 7.00	Cc1c(CC(=O)N2CCCC2)c(=O)oc2c(C=O)c(O)c3c(c12)CCCO3 [Example 5, 6-hydroxy-1-methyl-3-oxo-2-(2-oxo-2-(pyrrolidin-1-yl)ethyl)-3,8,9,10-tetrahydropyrano[3,2-f]chromene-5-carbaldehyde]	–
> 7.00	Cc1c(CC(=O)N2CCSC2)c(=O)oc2c(C=O)c(O)c3c(c12)CCCO3 [Example 30, 6-hydroxy-1-methyl-3-oxo-2-(2-oxo-2-(thiazolidin-3-yl)ethyl)-3,8,9,10-tetrahydropyrano[3,2-f]chromene-5-carbaldehyde]	–
> 7.00	Cc1c(CC(=O)N2CCOCC2)c(=O)oc2c(C=O)c(O)c3c(c12)CCCO3 [Example 3, 6-hydroxy-1-methyl-2-(2-morpholino-2-oxoethyl)-3-oxo-3,8,9,10-tetrahydropyrano[3,2-f]chromene-5-carbaldehyde]	–
> 7.00	COCCNC(=O)Cc1c(C)c2c3c(c(O)c(C=O)c2oc1=O)OCCC3 [Example 24, 2-(5-formyl-6-hydroxy-1-methyl-3-oxo-3,8,9,10-tetrahydropyrano[3,2-f]chromen-2-yl)-N-(2-methoxyethyl)acetamide]	–
> 7.00	CCNC(=O)Cc1c(C)c2c3c(c(O)c(C=O)c2oc1=O)OCCC3 [Example 17, N-ethyl-2-(5-formyl-6-hydroxy-1-methyl-3-oxo-3,8,9,10-tetrahydropyrano[3,2-f]chromen-2-yl)acetamide]	–
> 7.00	CCN(CC)C(=O)Cc1c(C)c2c3c(c(O)c(C=O)c2oc1=O)OCCC3 [Example 25, N,N-diethyl-2-(5-formyl-6-hydroxy-1-methyl-3-oxo-3,8,9,10-tetrahydropyrano[3,2-f]chromen-2-yl)acetamide]	–
> 7.00	CCNC(=O)Cc1c(C)c2c3c(c(O)c(C=O)c2oc1=O)OCC3 [Example 8, N-ethyl-2-(5-formyl-4-hydroxy-9-methyl-7-oxo-1,7-dihydro-2H-furo[3,2-f]chromen-8-yl)acetamide]	–
> 7.00	Cc1c(CC(=O)N2CCC(C)C2)c(=O)oc2c(C=O)c(O)c3c(c12)CCCO3 (stereo not shown) [Example 11, 6-hydroxy-1-methyl-2-(2-(3-methylpyrrolidin-1-yl)-2-oxoethyl)-3-oxo-3,8,9,10-tetrahydropyrano[3,2-f]chromene-5-carbaldehyde]	–
